Read-outs that look alike come from different tables or passages of the source.
Assay: Trotabresib plasma pharmacokinetics, CC-90010-GBM-002
Format: in vivo, human
Details: for Cmax: read-out: Cmax, GM (GCV%)
Experimental: The sample size was not based on strict statistical power calculations. Safety, efficacy, and pharmacodynamic analyses were summarized using descriptive statistics. Plasma pharmacokinetic parameters were calculated by the noncompartmental analysis method from plasma concentration–time profiles.

With Cn1cc(-c2cc(S(C)(=O)=O)ccc2OCC2CC2)c2ccccc2c1=O [Trotabresib] the “Reduction in plasma trotabresib concentration” value (168 hours post-dose) was greater than 75%, the “mean t½” value (all cohorts, standard deviation ± 27.2) was ~ 74 h and the “Increase in exposure with dose” value (both treatment settings, 15-45 mg) was “proportional to dose”. It also gave a Cmax (human, plasma, oral, adjuvant trotabresib 15 mg + TMZ, Day 1) of 201 ng/mL, a Tmax (human, plasma, oral, adjuvant trotabresib 15 mg + TMZ, Day 1, read-out: tmax, median (range)) of 1 h and a Cmax (human, plasma, oral, adjuvant trotabresib 15 mg + TMZ, Day 4) of 433 ng/mL. For the same compound, the Tmax (human, plasma, oral, adjuvant trotabresib 15 mg + TMZ, Day 4, read-out: tmax, median (range)) was 1.5 h, the Cmax (human, plasma, oral, adjuvant trotabresib 30 mg + TMZ, Day 1) was 306 ng/mL and the Tmax (human, plasma, oral, adjuvant trotabresib 30 mg + TMZ, Day 1, read-out: tmax, median (range)) was 2 h. The Cmax (human, plasma, oral, adjuvant trotabresib 30 mg + TMZ, Day 4) was 822 ng/mL, the Tmax (human, plasma, oral, adjuvant trotabresib 30 mg + TMZ, Day 4, read-out: tmax, median (range)) was 1.5 h and the Cmax (human, plasma, oral, adjuvant trotabresib 45 mg + TMZ, Day 1) was 522 ng/mL. It also gave a Tmax (human, plasma, oral, adjuvant trotabresib 45 mg + TMZ, Day 1, read-out: tmax, median (range)) of 2 h, a Cmax (human, plasma, oral, adjuvant trotabresib 45 mg + TMZ, Day 4) of 1160 ng/mL and a Tmax (human, plasma, oral, adjuvant trotabresib 45 mg + TMZ, Day 4, read-out: tmax, median (range)) of 1.5 h. The half-life (human, plasma, oral, all cohorts, standard deviation ± 27.2, read-out: mean t½ (converted)) was 74.2 h, the Cmax (human, plasma, oral, concomitant trotabresib 15 mg + TMZ + RT, Day 1) was 167 ng/mL and the Tmax (human, plasma, oral, concomitant trotabresib 15 mg + TMZ + RT, Day 1, read-out: tmax, median (range)) was 2 h. It also gave a Cmax (human, plasma, oral, concomitant trotabresib 15 mg + TMZ + RT, Day 4) of 383 ng/mL, a Tmax (human, plasma, oral, concomitant trotabresib 15 mg + TMZ + RT, Day 4, read-out: tmax, median (range)) of 1.3 h and a Cmax (human, plasma, oral, concomitant trotabresib 30 mg + TMZ + RT, Day 1) of 309 ng/mL. It also gave a Tmax (human, plasma, oral, concomitant trotabresib 30 mg + TMZ + RT, Day 1, read-out: tmax, median (range)) of 2 h, a Cmax (human, plasma, oral, concomitant trotabresib 30 mg + TMZ + RT, Day 4) of 874 ng/mL and a Tmax (human, plasma, oral, concomitant trotabresib 30 mg + TMZ + RT, Day 4, read-out: tmax, median (range)) of 1.5 h. The Tmax (human, plasma, oral, day 4, all cohorts, read-out: tmax) was 0.5 to 4 h.

— article PMC9653173, “Trotabresib (CC-90010) in combination with adjuvant temozolomide or concomitant temozolomide plus radiotherapy in patients with newly diagnosed glioblastoma” (Neuro-Oncology Advances, 2022)
